Here are results for 2 compounds from patent publication US20180289764A1, “TRADITIONAL CHINESE MEDICINE COMPOSITION FOR TREATING PSORIASIS” (Guangdong Provincial Hospital of Chinese Medicine, priority 2015, published 2018).

Assay [1] deals with mouse tail scaled epidermis. The assay is described as follows: Effects on the mouse tail scaled epidermis. The assay is classed as in vivo, KM mice. The source says:
60 KM mice weighing 18-25 g with half males and half females were selected in this study, the mice were qualified in an adaptive breeding observation. The mice were layered with Excel according to weights, 6 mice every layer, and the mice in each layer were randomly assigned to each group, 10 mice every group, and the mice were divided into 6 groups in total, that is normal control group, the group of the present invention, the group of patent 200910091066.5, the group of the patent of 201210183904.3, the group of methotrexate tablet and the group of yujin yinxie tablet. The mice in each group were given by intragastric administration at a volume of 20 mL·kg-1·d-1 in the morning, once every day for 14 days. The normal control group was given equal volume of pure water. The mice were sacrificed one hour after the last administration, and a long strip of the dorsal skin of the root of the mouse tail (about 1.0 cm×0.2 em) was took off and fixed with 10% formaldehyde solution, embedded in paraffin, and stained with HE. The tail scales of each mouse were observed under an optical microscope. Those where the granulosa layers arranged in rows are in the epidermis of scales between the two follicular orifice, are known as the scales with granulosa layer. […]

The test system of assay [2] is propranolol-induced guinea pig psoriasis model. Briefly: Propranolol-induced guinea pig psoriasis model. The class given is in vivo, Hartley guinea pigs. The procedure:
The preparation of 5% propranolol hydrochloride emulsion: 5 g propranolol hydrochloride was dissolved with 50% ethanol, 5 mL 1,2-propanediol was added as a composite accelerator, and 5 g PVPK30 was added as a film-forming material. 50% ethanol was added to 100 mL, and preparing into 5% propranolol hydrochloride emulsion until used
80 Hartley guinea pigs weighing 200-250 g with half males and half females were selected in this study, the Hartley guinea pigs were qualified in an adaptive breeding observation. 10 guinea pigs (half male and half female) were used as a normal control group based on a random allocation, and no drugs were administrated to them; the other 70 guinea pigs (half males and half females) were treated with 5% propranolol hydrochloride emulsion (about 200 μL) evenly in the skins behind both of ears, 2 times a day, continuing treating 4 weeks, for modeling. 4 weeks later, 10 guinea pigs were sacrificed to examine whether the model was successful (with the thickness of the ear skin as an index). The remaining 60 guinea pigs were then layered with Excel according to weights, 6 guinea pigs every layer, and the guinea pigs in each layer were randomly assigned to each group, 10 guinea pigs every group, and the guinea pigs were divided into 6 groups in total, that is the model control group, the group of the present invention, the group of patent 201210183904.3, the group of the patent of 200910091066.5, the group of methotrexate tablet and the group of yujin yinxie tablet. The guinea pigs in each group were given by intragastric administration at a volume of 20 mL·kg-1·d-1 in the morning, once every day for 10 days. The normal control group and the model control group were given equal volume of pure water. The guinea pigs were sacrificed one hour after the last administration, and the skin behind both of ears was took off and fixed with 10% formaldehyde solution, embedded in paraffin, and stained with HE, observed under an optical microscope. 10 high-power fields were counted, the thickness of the epidermis was measured with a micrometer, and averaged; the auricular pathology of guinea pigs was used to perform a histological examination, observe vasodilation situations, which were denoted as 0, 0.5, 1 and 2 points according to normal, light, medium and heavy degrees.

For the next assay, the system named is psoriasis. The conditions noted are these: systemic treatment of psoriasis, background table; cited from earlier work.

In the case of `CN(Cc1cnc2nc(N)nc(N)c2n1)c1ccc(C(=O)N[C@@H](CCC(=O)O)C(=O)O)cc1` [methotrexate tablet, methotrexate], in assay [1] (intragastric 14 days, P<0.05 or P<0.01), the “Formation of the epidermis granulosa layer of the mouse tail scale compared with normal control group” value is “significantly promote the formation of the epidermis granulosa layer of the mouse tail scale”. Moreover, in assay [1] (per 100 scales, expressed as a percentage, intragastric once daily for 14 days, x ± s, n = 10), the “The number of scales in the granulosa layer” value worked out at 43.65 ± 11.18. The Blood vessel dilatation in assay [2] (0, 0.5, 1, 2 points for normal, light, medium, heavy, intragastric 10 days, x ± s, n = 10) is recorded as 0.42 ± 0.12 score. In addition, the “Effect on epidermis thickness of guinea pig ears and hemangiectasis compared with model control” value in assay [2] (P<0.01) was “significantly reduce the thickness of the epidermis of guinea pig ears and reduce hemangiectasis”. Further, in assay [2] (guinea pig ear skin, HE stain), the Histopathological examination entry is “hyperkeratosis and parakeratosis was obviously alleviated”. In assay [2] (guinea pig ear skin, intragastric once daily for 10 days, x ± s, n = 10), this compound registered an Epidermal thickness of 96.61 ± 4.78 μm. Further, the “Efficacy rate (the efficient)” value in the assay on psoriasis is 20-40%.

For the compound `CC1=C(/C=C/C(C)=C/C=C/C(C)=C/CO)C(C)(C)CCC1` [Vitamin A, vitamin A (retinol)], in the assay on psoriasis, the “Efficacy rate (the efficient)” value is 25%.
